# Reference: ChEMBL document CHEMBL4507293 (2021)
# pKi: −log10 of the molar value. Calls of active or inactive are those of the source. The rule behind the calls is not given here.
# Key:
# [1] = target: Serine/threonine-protein kinase ULK1 (Homo sapiens) (UniProt O75385); details: Compound concentration 100.0 nM
# [2] = target: 5-hydroxytryptamine receptor 7 (Homo sapiens, UniProt P34969); test: GPCRScan assay: inhibition of 5-HT7A; set-up: radioligand conc. used [nm] 5.0 – 6.0, parental cells Stable HEK
# [3] = test system: Phosphatidylinositol 4,5-bisphosphate 3-kinase catalytic subunit alpha isoform (Homo sapiens), P42336 [H1047L]; details: Compound concentration 100.0 nM
# [4] = target: C-C chemokine receptor type 1 (Homo sapiens) (UniProt P32246); test: Chemokine CCR1 Eurofins-Panlabs radioligand binding assay; details: Compound concentration 10.0 uM
# [5] = target: cAMP and cAMP-inhibited cGMP 3',5'-cyclic phosphodiesterase 10A (Homo sapiens, UniProt Q9Y233); test: Cell assay
# [6] = target: 5-hydroxytryptamine receptor 5A (Homo sapiens) (UniProt P47898); details: Compound concentration 10.0 uM
# [7] = target: Cannabinoid receptor 1 (Homo sapiens) (UniProt P21554); details: Compound concentration 10.0 uM
# Homo sapiens [8] = species: Homo sapiens; test: Prostanoid, Thromboxane A2 (TP) Eurofins-Panlabs radioligand binding assay; set-up: ligand concentration 5 nM, non-specific ligand with concentration 1 µM SQ-29548, incubation time 30 min, incubation temperature 25 °C; details: Compound concentration 10.0 uM
# [9] = target: Adrenomedullin receptor AM1; CALCRL/RAMP2 (Homo sapiens) (UniProt O60895+Q16602); test: Adrenomedullin AM1 Eurofins-Panlabs radioligand binding assay; assay type: protein-complex assay; details: Compound concentration 10.0 uM
# Rattus norvegicus [10] = species: Rattus norvegicus; details: Compound concentration 10.0 uM
# [11] = target: Acetylcholine receptor subunit alpha (Homo sapiens) (UniProt P02708); test: Inhibition of Nicotinic Acetylcholine D1, Bungarotoxin at 10 µM in the Eurofins-Panlabs radioligand binding assay (Eurofins_assay_258700); details: Compound concentration 10.0 uM
# [12] = target: C-X-C chemokine receptor type 2 (Homo sapiens) (UniProt P25025); test: Inhibition of Chemokine CXCR2 (IL-8RB) at 10 µM in the Eurofins-Panlabs radioligand binding assay (Eurofins_assay_244500); details: Compound concentration 10.0 uM
# Rattus norvegicus [13] = species: Rattus norvegicus; test: Testosterone Eurofins-Panlabs radioligand binding assay; set-up: ligand concentration 1.5 nM; details: Compound concentration 10.0 uM
# [14] = target: T1, 5-hydroxytryptamine receptor 1A (Homo sapiens) (UniProt P08908); details: Compound concentration 10.0 uM
# T1 sequence (whole entry): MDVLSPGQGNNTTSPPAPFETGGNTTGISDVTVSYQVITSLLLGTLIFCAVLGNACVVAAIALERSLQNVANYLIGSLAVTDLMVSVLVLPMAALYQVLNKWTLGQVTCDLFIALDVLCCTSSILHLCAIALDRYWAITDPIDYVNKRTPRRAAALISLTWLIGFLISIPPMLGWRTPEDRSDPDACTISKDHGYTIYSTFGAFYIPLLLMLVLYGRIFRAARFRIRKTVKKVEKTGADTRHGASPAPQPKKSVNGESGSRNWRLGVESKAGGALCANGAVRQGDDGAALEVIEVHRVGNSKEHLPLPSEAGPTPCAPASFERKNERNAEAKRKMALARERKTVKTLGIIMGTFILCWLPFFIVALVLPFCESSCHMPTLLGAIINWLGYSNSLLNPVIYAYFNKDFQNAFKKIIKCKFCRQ
# [15] = target: Acetylcholinesterase (Homo sapiens) (UniProt P22303); details: Compound concentration 10.0 uM
# [16] = target: Neurotensin receptor type 1 (Homo sapiens) (UniProt P30989); test: Neurotensin NT1 Eurofins-Panlabs radioligand binding assay; set-up: ligand concentration 0.02 nM, non-specific ligand with concentration 1 µM Neurotensin, incubation time 45 min, incubation temperature 25 °C; details: Compound concentration 10.0 uM
# Rattus norvegicus [17] = species: Rattus norvegicus; test: Glutamate, NMDA, Polyamine Eurofins-Panlabs radioligand binding assay; assay type: protein-complex assay; set-up: ligand concentration 2 nM; details: Compound concentration 10.0 uM
# [18] = target: Histamine H1 receptor (Homo sapiens) (UniProt P35367); details: Compound concentration 10.0 uM
# [19] = target: Alpha-2A adrenergic receptor (Homo sapiens) (UniProt P08913); test: Adrenergic alpha2A Eurofins-Panlabs radioligand binding assay; set-up: ligand concentration 1 nM, non-specific ligand with concentration 10 µM WB-4101, incubation time 60 min, incubation temperature 25 °C; details: Compound concentration 10.0 uM
# [20] = target: B2 bradykinin receptor (Homo sapiens) (UniProt P30411); test: Bradykinin B2 Eurofins-Panlabs radioligand binding assay; details: Compound concentration 10.0 uM
# Homo sapiens [21] = species: Homo sapiens; test: Inhibition of Nicotinic Acetylcholine at compound concentration of 10.0 uM in the Eurofins-Panlabs radioligand binding assay (Eurofins_assay_258590); assay type: protein-complex assay; details: Compound concentration 10.0 uM
# [22] = target: T2, Alpha-1A adrenergic receptor (Homo sapiens) (UniProt P35348); details: Rattus norvegicus; Compound concentration 10.0 uM
# T2 sequence (whole entry): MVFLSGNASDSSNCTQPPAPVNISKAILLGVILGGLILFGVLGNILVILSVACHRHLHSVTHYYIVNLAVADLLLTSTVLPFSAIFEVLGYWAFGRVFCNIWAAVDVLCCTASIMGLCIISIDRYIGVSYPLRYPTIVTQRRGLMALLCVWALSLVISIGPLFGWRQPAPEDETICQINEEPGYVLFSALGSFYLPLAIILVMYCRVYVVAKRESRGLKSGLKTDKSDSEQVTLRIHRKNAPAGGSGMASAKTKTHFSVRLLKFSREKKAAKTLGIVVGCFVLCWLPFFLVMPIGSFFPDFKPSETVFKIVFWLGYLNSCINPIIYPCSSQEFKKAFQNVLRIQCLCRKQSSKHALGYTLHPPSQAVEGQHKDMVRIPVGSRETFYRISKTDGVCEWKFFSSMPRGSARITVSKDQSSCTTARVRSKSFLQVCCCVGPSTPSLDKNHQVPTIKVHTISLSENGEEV
# [23] = target: Muscarinic acetylcholine receptor M3 (Homo sapiens) (UniProt P20309); details: Compound concentration 10.0 uM
# [24] = target: Sodium-dependent serotonin transporter (Homo sapiens) (UniProt P31645); details: Compound concentration 10.0 uM
# [25] = target: Melanocyte-stimulating hormone receptor (Homo sapiens) (UniProt Q01726); test: Melanocortin MC1 Eurofins-Panlabs radioligand binding assay; details: Compound concentration 10.0 uM
# [26] = target: 5-hydroxytryptamine receptor 1B (Homo sapiens) (UniProt P28222); test: Inhibition of Serotonin (5-Hydroxytryptamine) 5-HT1B at 10 µM in the Eurofins-Panlabs radioligand binding assay (Eurofins_assay_271200); details: Compound concentration 10.0 uM
# [27] = target: Endothelin-1 receptor (Homo sapiens) (UniProt P25101); details: Compound concentration 10.0 uM
# Endothelin-1 receptor (Homo sapiens), sequence (P25101 whole entry): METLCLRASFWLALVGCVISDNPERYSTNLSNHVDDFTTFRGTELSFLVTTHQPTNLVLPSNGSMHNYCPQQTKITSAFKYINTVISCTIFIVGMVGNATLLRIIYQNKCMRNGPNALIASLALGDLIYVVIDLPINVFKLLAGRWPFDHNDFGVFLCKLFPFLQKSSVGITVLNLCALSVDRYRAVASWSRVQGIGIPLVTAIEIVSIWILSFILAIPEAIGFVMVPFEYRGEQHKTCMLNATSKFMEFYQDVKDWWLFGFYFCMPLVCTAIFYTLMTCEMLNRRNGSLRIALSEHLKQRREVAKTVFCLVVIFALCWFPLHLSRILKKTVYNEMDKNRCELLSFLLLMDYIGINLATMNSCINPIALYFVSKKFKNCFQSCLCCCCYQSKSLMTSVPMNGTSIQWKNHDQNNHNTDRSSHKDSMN
# C-X-C chemokine receptor type 2 (Homo sapiens), sequence (P25025 whole entry): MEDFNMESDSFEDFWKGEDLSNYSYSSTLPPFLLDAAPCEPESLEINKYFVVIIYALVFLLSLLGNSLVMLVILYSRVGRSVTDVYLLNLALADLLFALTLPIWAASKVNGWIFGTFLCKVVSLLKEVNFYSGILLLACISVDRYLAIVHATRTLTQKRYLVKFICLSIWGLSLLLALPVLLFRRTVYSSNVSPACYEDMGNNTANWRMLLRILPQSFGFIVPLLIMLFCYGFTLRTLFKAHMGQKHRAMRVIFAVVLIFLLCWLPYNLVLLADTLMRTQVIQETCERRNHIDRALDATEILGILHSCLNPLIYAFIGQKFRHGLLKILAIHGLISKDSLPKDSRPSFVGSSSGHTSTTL
# Acetylcholinesterase (Homo sapiens), sequence (P22303 whole entry): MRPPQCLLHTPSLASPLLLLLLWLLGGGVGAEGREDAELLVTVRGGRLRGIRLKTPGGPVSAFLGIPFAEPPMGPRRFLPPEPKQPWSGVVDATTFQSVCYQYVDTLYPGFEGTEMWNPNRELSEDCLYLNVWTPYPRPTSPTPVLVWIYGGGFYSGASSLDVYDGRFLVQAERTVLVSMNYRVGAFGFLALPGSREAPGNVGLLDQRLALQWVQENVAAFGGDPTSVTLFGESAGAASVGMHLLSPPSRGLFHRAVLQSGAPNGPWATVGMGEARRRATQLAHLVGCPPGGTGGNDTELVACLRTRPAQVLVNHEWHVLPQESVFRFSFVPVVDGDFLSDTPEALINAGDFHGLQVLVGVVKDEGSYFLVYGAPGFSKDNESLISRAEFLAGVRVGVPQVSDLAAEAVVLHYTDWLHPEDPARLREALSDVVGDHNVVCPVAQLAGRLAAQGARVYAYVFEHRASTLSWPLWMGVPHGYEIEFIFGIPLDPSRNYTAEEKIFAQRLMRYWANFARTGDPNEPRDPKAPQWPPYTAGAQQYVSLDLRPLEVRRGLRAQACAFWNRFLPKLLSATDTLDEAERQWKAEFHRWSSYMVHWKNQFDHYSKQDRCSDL
# cAMP and cAMP-inhibited cGMP 3',5'-cyclic phosphodiesterase 10A, sequence (Q9Y233 whole entry): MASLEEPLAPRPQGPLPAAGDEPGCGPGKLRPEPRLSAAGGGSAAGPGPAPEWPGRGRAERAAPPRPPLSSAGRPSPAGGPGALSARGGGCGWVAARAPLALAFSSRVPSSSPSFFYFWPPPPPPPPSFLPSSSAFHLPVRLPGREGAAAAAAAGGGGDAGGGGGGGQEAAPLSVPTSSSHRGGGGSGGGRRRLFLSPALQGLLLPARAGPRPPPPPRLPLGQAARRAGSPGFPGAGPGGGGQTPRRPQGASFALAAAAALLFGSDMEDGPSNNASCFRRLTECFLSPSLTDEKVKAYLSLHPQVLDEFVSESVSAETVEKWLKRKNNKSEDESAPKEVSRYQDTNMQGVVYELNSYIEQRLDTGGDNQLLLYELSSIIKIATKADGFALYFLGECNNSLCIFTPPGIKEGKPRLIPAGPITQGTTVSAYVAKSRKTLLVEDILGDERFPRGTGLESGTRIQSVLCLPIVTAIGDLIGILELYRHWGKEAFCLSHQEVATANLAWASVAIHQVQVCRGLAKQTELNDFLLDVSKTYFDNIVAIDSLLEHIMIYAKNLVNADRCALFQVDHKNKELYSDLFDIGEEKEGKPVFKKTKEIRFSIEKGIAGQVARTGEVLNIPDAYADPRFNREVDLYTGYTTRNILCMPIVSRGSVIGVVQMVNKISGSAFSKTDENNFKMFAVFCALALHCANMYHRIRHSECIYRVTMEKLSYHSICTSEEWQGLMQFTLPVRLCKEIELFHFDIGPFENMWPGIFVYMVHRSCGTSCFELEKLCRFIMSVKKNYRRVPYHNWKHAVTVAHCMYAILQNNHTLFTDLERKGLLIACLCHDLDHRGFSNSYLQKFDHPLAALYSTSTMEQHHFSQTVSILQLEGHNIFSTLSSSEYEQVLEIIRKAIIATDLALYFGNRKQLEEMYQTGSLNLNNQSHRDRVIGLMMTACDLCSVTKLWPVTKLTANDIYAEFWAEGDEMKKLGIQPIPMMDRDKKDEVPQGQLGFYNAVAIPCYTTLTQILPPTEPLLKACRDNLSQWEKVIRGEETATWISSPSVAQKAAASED
# Muscarinic acetylcholine receptor M3 (Homo sapiens), sequence (P20309 whole entry, looked up): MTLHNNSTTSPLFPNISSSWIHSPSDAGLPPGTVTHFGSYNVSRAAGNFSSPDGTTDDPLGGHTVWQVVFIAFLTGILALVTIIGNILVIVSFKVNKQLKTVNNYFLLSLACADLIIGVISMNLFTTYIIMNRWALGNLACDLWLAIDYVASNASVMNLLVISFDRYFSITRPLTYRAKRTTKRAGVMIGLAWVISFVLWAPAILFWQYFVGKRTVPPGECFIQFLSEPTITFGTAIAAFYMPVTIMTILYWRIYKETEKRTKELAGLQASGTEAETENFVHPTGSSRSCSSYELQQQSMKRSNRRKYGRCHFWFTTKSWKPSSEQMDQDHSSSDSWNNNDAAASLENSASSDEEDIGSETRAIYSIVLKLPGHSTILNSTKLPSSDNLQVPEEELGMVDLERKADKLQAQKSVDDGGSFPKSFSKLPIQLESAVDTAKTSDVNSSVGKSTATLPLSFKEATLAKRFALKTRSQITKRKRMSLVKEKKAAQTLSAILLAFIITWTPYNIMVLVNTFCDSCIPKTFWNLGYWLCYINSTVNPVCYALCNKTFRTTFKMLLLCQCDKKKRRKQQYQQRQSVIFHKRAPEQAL
# Cannabinoid receptor 1 (Homo sapiens), sequence (P21554 whole entry): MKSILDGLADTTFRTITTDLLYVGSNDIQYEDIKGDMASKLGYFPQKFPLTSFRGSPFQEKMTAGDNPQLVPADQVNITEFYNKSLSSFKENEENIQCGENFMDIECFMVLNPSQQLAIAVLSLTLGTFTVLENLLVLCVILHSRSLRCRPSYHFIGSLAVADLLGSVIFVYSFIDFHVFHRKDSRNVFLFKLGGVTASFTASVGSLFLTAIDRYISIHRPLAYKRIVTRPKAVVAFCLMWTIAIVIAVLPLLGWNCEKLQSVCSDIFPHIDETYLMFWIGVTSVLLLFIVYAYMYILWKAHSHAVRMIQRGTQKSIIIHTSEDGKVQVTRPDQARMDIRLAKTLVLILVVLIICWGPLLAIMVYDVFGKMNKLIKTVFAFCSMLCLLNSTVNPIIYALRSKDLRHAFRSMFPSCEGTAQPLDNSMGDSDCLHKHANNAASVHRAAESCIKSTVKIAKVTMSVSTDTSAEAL
# B2 bradykinin receptor (Homo sapiens), sequence (P30411 whole entry): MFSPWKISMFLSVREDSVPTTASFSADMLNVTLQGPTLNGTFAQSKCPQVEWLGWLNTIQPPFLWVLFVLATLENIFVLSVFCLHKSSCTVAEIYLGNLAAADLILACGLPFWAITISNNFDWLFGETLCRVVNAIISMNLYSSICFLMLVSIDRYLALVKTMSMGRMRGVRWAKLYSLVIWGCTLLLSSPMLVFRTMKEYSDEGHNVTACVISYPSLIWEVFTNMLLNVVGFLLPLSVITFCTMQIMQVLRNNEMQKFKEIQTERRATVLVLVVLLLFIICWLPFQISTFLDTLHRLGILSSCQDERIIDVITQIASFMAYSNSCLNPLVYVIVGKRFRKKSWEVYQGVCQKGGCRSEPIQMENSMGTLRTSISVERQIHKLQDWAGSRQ
# Neurotensin receptor type 1 (Homo sapiens), sequence (P30989 whole entry): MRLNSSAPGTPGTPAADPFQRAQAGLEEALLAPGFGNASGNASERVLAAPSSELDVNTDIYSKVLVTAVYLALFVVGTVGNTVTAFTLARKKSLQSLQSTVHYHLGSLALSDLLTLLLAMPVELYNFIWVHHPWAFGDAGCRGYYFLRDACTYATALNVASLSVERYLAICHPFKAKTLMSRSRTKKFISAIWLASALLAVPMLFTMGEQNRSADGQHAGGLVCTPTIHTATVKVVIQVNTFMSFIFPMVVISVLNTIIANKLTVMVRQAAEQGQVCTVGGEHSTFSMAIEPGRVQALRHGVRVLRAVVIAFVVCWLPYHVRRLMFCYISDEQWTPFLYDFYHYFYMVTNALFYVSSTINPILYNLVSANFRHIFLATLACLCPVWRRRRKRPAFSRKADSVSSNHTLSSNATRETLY
# Melanocyte-stimulating hormone receptor (Homo sapiens), sequence (Q01726 whole entry, looked up): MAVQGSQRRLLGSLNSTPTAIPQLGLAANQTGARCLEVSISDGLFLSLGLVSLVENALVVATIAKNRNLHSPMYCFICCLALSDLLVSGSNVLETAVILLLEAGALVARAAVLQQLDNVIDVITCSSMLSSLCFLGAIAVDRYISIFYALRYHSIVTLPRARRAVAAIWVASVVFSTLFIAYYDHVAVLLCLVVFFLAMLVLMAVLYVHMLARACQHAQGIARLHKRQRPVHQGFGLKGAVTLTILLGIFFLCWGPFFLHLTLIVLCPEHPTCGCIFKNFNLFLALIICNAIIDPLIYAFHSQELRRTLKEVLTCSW
# C-C chemokine receptor type 1 (Homo sapiens), sequence (P32246 whole entry): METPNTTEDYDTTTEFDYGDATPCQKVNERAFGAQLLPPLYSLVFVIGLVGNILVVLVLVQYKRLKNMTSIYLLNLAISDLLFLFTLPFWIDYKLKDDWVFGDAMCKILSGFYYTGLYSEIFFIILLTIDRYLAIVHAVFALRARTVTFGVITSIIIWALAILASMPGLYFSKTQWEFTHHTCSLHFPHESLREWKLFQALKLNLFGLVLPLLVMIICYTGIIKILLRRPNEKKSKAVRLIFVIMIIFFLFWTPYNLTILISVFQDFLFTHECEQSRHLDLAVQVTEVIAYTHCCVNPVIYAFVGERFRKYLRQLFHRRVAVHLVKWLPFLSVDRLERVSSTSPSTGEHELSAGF
smiles,measurement,setting,value
CC(C)CC(=O)N1CCc2nc(-c3ccc(Br)cc3)nc(N(C)Cc3ccccc3)c2C1 [THPP-1-NC],residual activity,[1],90%
same,pKi,[2],6.24
same,residual activity,[3],100%
COCCOc1nc(-c2ccc(Cl)nc2)nc2c1CN(C(=O)c1ncn3ccccc13)CC2 [THPP-1],inhibition,[4],11%
same,IC50,[5],49 nM (active)
same,inhibition,[6],-7.27%
same,inhibition,[7],21%
same,inhibition,Homo sapiens [8],8%
same,inhibition,[9],-6%
same,inhibition,Rattus norvegicus [10],-9%
same,inhibition,[11],-3%
same,inhibition,[12],-4%
same,inhibition,Rattus norvegicus [13],7%
same,inhibition,[14],8%
same,inhibition,[15],-1%
same,inhibition,[16],10%
same,inhibition,Rattus norvegicus [17],11%
same,inhibition,[18],0%
same,inhibition,[19],-3%
same,inhibition,[20],13%
same,inhibition,Homo sapiens [21],-7%
same,inhibition,[22],9%
same,inhibition,[23],-6%
same,inhibition,[24],2%
same,inhibition,[25],23%
same,inhibition,[26],7%
same,inhibition,[27],1%
